Reference: US7115741B2, “4-thieno[2,3-D]pyrimidin-4-YL piperazine compounds” (priority 2001, dated 2006)

system: platelet ADP receptors; test: ARB binding assay (platelet ADP receptor binding, [3H]2-MeS-ADP); parameters: species or system human; details: relative activities of selected compounds in the ARB binding assay
Method: Utilizing the second assay the potency of inhibition of such compounds with respect to [^3H]2-MeS-ADP binding to whole platelets is determined. [^3H]2-MeS-ADP binding experiments are routinely performed with outdated human platelets collected by standard procedures at hospital blood banks. Apyrase-washed outdated platelets are prepared as follows (all steps at room temperature, if not indicated otherwise):
Outdated platelet suspensions are diluted with 1 volume of CGS and platelets pelleted by centrifugation at 1900×g for 45 minutes. Platelet pellets are resuspended at 3–6×10^9 platelets/ml in CGS containing 1 U/ml apyrase (grade V, Sigma, St. Louis, Mo.) and incubated for 15 minutes at 37° C. After centrifugation at 730×g for 20 minutes, pellets are resuspended in Hepes-Tyrode's buffer containing 0.1% BSA (Sigma, St. Louis, Mo.) at a concentration of 6.66×10^8 platelets/ml. Binding experiments are performed after >45 minutes resting of the platelets.
Alternatively, binding experiments are performed with fresh human platelets prepared as described in I.(Inhibition of ADP-Mediated Platelet Aggregation in vitro), except that platelets are resuspended in Hepes-Tyrode's buffer containing 0.1% BSA (Sigma, St. Louis, Mo.) at a concentration of 6.66×10^8 platelets/ml. Very similar results are obtained with fresh and outdated platelets.
A platelet ADP receptor binding assay using the tritiated potent agonist ligand [^3H]2-MeS-ADP (Jantzen, H. M. et al. (1999) Thromb. Hemost. 81:111–117) has been adapted to the 96-well microtiter format. In an assay volume of 0.2 ml Hepes-Tyrode's buffer with 0.1% BSA and 0.6% DMSO, 1×10^8 apyrase-washed platelets are preincubated in 96-well flat bottom microtiter plates for 5 minutes with serial dilutions of test compounds before addition of 1 nM [^3H]2-MeS-ADP ([^3H]2-methylthioadenosine-5′-diphosphate, ammonium salt; specific activity 48–49 Ci/mmole, obtained by custom synthesis from Amersham Life Science, Inc., Arlington Heights, Ill., or NEN Life Science Products, Boston, Mass.). Total binding is determined in the absence of test compounds. Samples for nonspecific binding may contain 10^−5 M unlabelled 2-MeS-ADP (RBI, Natick, Mass.). After incubation for 15 minutes at room temperature, unbound radioligand is separated by rapid filtration and two washes with cold (4–8° C.) Binding Wash Buffer (10 mM Hepes pH 7.4, 138 mM NaCl) using a 96-well cell harvester (Minidisc 96, Skatron Instruments, Sterling, Va.) and 8×12 GF/C glassfiber filtermats (Printed Filtermat A, for 1450 Microbeta, Wallac Inc., Gaithersburg, Md.). The platelet-bound radioactivity on the filtermats is determined in a scintillation counter (Microbeta 1450, Wallac Inc., Gaithersburg, Md.). Specific binding is determined by subtraction of non-specific binding from total binding, and specific binding in the presence of test compounds is expressed as % of specific binding in the absence of test compounds dilutions.

Row | Structure (SMILES) | Relative Activity
1 | CCc1cc2c(N3CCN(C(=O)Cc4ccccc4)CC3)ncnc2s1 [Example 2, 1-[4-(6-ethylthiopheno[3,2-e]pyrimidin-4-yl)piperazinyl]-2-phenylethan-1-one] | +++ (<10 micromolar)
2 | CCc1cc2c(N3CCN(C(=O)CC(F)(F)F)CC3)ncnc2s1 [Example 5, 1-[4-(6-ethylthiopheno[3,2-e]pyrimidin-4-yl)piperazinyl]-3,3,3-trifluoropropan-1-one] | +++ (<10 micromolar)
3 | CCc1cc2c(N3CCN(C(=O)CCC(C)C)CC3)ncnc2s1 [Example 17, 1-[4-(6-ethylthiopheno[3,2-e]pyrimidin-4-yl)piperazinyl]-4-methylpentan-1-one] | +++ (<10 micromolar)
4 | CCc1cc2c(N3CCN(C(=O)C(F)(F)F)CC3)ncnc2s1 [Example 55, 1-[4-(6-ethylthiopheno[3,2-e]pyrimidin-4-yl)piperazinyl]-2,2,2-trifluoroethan-1-one] | +++ (<10 micromolar)
5 | CCc1cc2c(N3CCN(C(=O)C=C(C(F)(F)F)C(F)(F)F)CC3)ncnc2s1 [Example 59, 1-[4-(6-ethylthopheno[3,2-e]pyrimidin-4-yl)pperazinyl]-4,4,4-trifluoro-3-(trifluoromethyl)but-2-en-1-one] | + (>20 micromolar)
6 | CCc1cc2c(N3CCN(C(=O)Cc4ccncc4)CC3)ncnc2s1 [Example 67, 1-[4-(6-ethylthiopheno[3,2-e]pyrimidin-4-yl)piperazinyl]-2-(4-pyridyl)ethan-1-one] | ++ (10–20 micromolar)
7 | CCc1cc2c(N3CCN(C(=O)C(c4ccccc4)c4ccccc4)CC3)ncnc2s1 [Example 70, 1-[4-(6-ethylthiopheno[3,2-e]pyrimidin-4-yl)piperazinyl]-2,2-diphenylethan-1-one] | + (>20 micromolar)
8 | CCc1cc2c(N3CCN(C(=O)c4ccc(-c5ccccc5)cc4)CC3)ncnc2s1 [Example 71, 4-(6-ethylthiopheno[3,2-e]pyrimidin-4-yl)piperazinyl 4-phenylphenyl ketone] | +++ (<10 micromolar)
9 | CC(C)(C)c1cc2c(N3CCN(C(=O)Cc4ccccc4)CC3)ncnc2s1 [Example 106, 1-{4-[6-(tert-butyl)thiopheno[3,2-e]pyrimidin-4-yl]piperazinyl}-2-phenylethan-1-one] | ++ (10–20 micromolar)
10 | O=C(CC(F)(F)F)N1CCN(c2ncnc3sc(-c4ccccc4)cc23)CC1 [Example 111, 3,3,3-trifluoro-1-[4-(6-phenylthiopheno[3,2-e]pyrimidin-4-yl)piperazinyl]propan-1-one] | ++ (10–20 micromolar)
11 | O=C(Cc1ccccc1)N1CCN(c2ncnc3sc(Cc4ccccc4)cc23)CC1 [Example 112, 2-phenyl-1-{4-[6-benzylthiopheno[3,2-e]pyrimidin-4-yl]piperazinyl} ethan-1-one] | +++ (<10 micromolar)
12 | O=C(Cc1ccccc1)N1CCN(c2ncnc3sc(Br)cc23)CC1 [Example 125, 1-[4-(6-bromothiopheno[3,2-e]pyrimidin-4-yl)piperazinyl]-2-phenylethan-1-one] | +++ (<10 micromolar)
13 | C#Cc1cc2c(N3CCN(C(=O)CC(F)(F)F)CC3)ncnc2s1 [Example 135, 1-[4-(6-ethlylylthiopheno[3,2-e]pyrimidin-4-yl)piperazinyl]-3,3,3-trifluoropropan-1-one] | +++ (<10 micromolar)
14 | CCc1cc2c(N3CCN(C(=O)Cc4ccccc4)CC3)nc(C)nc2s1 [Example 153, 1-[4-(6-ethyl-2-methylthiopheno[3,2-e]pyrimidin-4-yl)piperazinyl]-2-phenylethan-1-one] | +++ (<10 micromolar)
15 | CCc1cc2c(N3CCN(C(=O)Cc4ccccc4)CC3)nc(SC)nc2s1 [Example 169, 1-[4-(6-ethyl-2-methylthiothiopheno[3,2-e]pyrimidin-4-yl)piperazinyl]-2-phenylethan-1-one] | +++ (<10 micromolar)
16 | CCc1cc2c(N3CCN(C(=O)Cc4ccccc4)CC3)nc(O)nc2s1 [Example 183, 1-[4-(6-ethyl-2-hydroxythiopheno[3,2-e]pyrimidin-4-yl)piperazinyl]-2-phenylethan-1-one] | + (>20 micromolar)
17 | CCc1cc2c(N3CCCN(C(=O)CCCOn4nnc5ccccc54)CC3)ncnc2s1 [Example 188, 4-benzotriazolyloxy-1-[4-(6-ethylthiopheno[3,2-e]pyrimidin-4-yl)(1,4-diazaperhydroepinyl)]butan-1-one] | +++ (<10 micromolar)
18 | CCc1cc2c(N3CCN(C(=O)Cc4ccccc4)CC3C)ncnc2s1 (stereo not drawn) [Example 193, 1-[4-(6-ethylthiopheno[3,2-e]pyrimidin-4-yl)-3-methylpiperazinyl]-2-phenylethan-1-one] | +++ (<10 micromolar)
19 | CCc1cc2c(N3CCN(C(=O)Cc4ccccc4)C(C)C3)ncnc2s1 (stereo not drawn) [Example 197, 1-[4-(6-ethylthiopheno[3,2-e]pyrimidin-4-yl)-2-methylpiperazinyl]-2-phenylethan-1-one] | ++ (10–20 micromolar)
20 | CCc1cc2c(N3CCN(C(=O)Cc4ccccc4)CC3c3ccccc3)ncnc2s1 (stereo not drawn) [Example 206, 1-[4-(6-ethylthiopheno[3,2-e]pyrimidin-4-yl)-3-phenylpiperazinyl]-2-phenylethan-1-one] | + (>20 micromolar)
21 | CCOC(=O)c1nc(N2CCN(C(=O)Cc3ccccc3)CC2)c2cc(CC)sc2n1 [Example 236, 6-Ethyl-4-(4-phenylacetyl-piperazin-1-yl)-thieno[2,3-d]pyrimidine-2-carboxylic acid ethyl ester] | +++ (<10 micromolar)
22 | CCc1cc2c(N3CCN(C(=O)c4cccc(COn5nnc6ccccc65)c4)CC3)ncnc2s1 [Example 250, [3-(Benzotriazol-1-yloxymethyl)-phenyl]-[4-(6-ethyl-thieno[2,3-d]pyrimidin-4-yl)-piperazin-1-yl]-methanone] | ++ (10–20 micromolar)
23 | CCc1cc2c(N3CCN(C(=O)CN4CCCC(n5nnc6ccccc65)C4)CC3)ncnc2s1 (stereo not drawn) [Example 271, 2-(3-Benzotriazol-1-yl-piperidin-1-yl)-1-[4-(6-ethyl-thieno[2,3-d]pyrimidin-4-yl)-piperazin-1-yl]-ethanone] | ++ (10–20 micromolar)
24 | CCc1cc2c(N3CCN(C(=O)[C@@H]4CCC[C@H](Cn5nnc6ccccc65)C4)CC3)ncnc2s1 [Example 279, (3-Benzotriazol-1-ylmethyl-cyclohexyl)-[4-(6-ethyl-thieno[2,3-d]pyrimidin-4-yl)-piperazin-1-yl]-methanone] | +++ (<10 micromolar)
25 | CCc1cc2c(N3CCN(C(=O)CCCCOc4ccccc4)CC3)ncnc2s1 [Example 305, 1-[4-(6-Ethyl-thieno[2,3-d]pyrimidin-4-yl)-piperazin-1-yl]-5-phenoxy-pentan-1-one] | +++ (<10 micromolar)
26 | CCc1cc2c(N3CCN(C(=O)CCCCC4CCCCC4)CC3)ncnc2s1 [Example 311, 5-Cyclohexyl-1-[4-(6-ethyl-thieno[2,3-d]pyrimidin-4-yl)-piperazin-1-yl]-pentan-1-one] | + (>20 micromolar)
27 | CCc1cc2c(N3CCN(C(=O)CCCCNC(=O)c4ccccc4)CC3)ncnc2s1 [Example 313, N-{5-[4-(6-Ethyl-thieno[2,3-d]pyrimidin-4-yl)-piperazin-1-yl]-5-oxo-pentyl}-benzamide] | ++ (10–20 micromolar)
